Measured values taken from patent US9771389B2, “Tylosin derivatives and method for preparation thereof” (BAYER ANIMAL HEALTH GMBH, priority 2013, dated 2017).
In brackets after ≈: the same amount, converted by molar mass.

Assays:
Format in all cases: cell-based
[1] = system: Mannheimia haemolytica, 3 isolates; experiment: MIC against Mannheimia haemolytica isolates; details: Mannheimia haemolytica, 3ISOLATES, 3 Mannheimia haemolytica isolates; broth dilution method; read-out: Range of minimum inhibitory concentrations (MIC)
Description: (§1) Minimal inhibitory concentrations (MICs) were determined against the most prevalent pathogens in cattle (Mannheimia Haemolytica, 3 isolates) and swine (A. pleuropneumoniae, 6 isolates). In addition the activity of several compounds was tested against two bacterial species, i.e. Mannheimia haemolytica and Actinobacillus pleuropneumoniae, which are considered as the most important bacterial respiratory pathogens in cattle and swine, respectively.

[2] = system: Actinobacillus pleuropneumoniae, 6 isolates; experiment: MIC against Actinobacillus pleuropneumoniae isolates; details: 6ISOLATES; 6 Actinobacillus pleuropneumoniae isolates; broth dilution method; read-out: Range of minimum inhibitory concentrations (MIC)
Description: as §1

[3] = system: Bacillus subtilis ATCC6633; experiment: Paper disc assay, Bacillus subtilis; details: S
Description: (§2) (2) Antibacterial activities against other bacteria were determined with Micrococcus luteus ATCC9341 (1), Bacillus subtilis […] (s), Escherichia coli NIHJ (c), Xanthomonas campestris KB88 (X), Mucor racemosus IFO 4581 (Mu) and Candida albicans ATCC 64548 (Ca).
(§3) Bacillus subtilis ATCC6633 was incubated in Davis synthetic medium and then the seed broth was combined with the medium in the ratio of 1:99 to obtain a test plate. Micrococcus luteus ATCC9341, Escherichia coli NIHJ and Xanthomonas campestris KB88 were respectively incubated in Nutrient agar medium and inoculated at 0.2%, 0.5% and 1.0%. Mucor racemosus IFO 4581 and Candida albicans ATCC 64548 were respectively incubated in GY agar medium and then inoculated at 0.3% and 0.2%.
(§4) A paper disc (ADVANTEC, Φ:6 mm) was impregnated with a solution of test compound and dried under reduced pressure. The paper disc was put on the test plate and it was incubated for 24 hours at 37° C. After incubation, the inhibition zone diameter and clarity (A to E) were determined.

[4] = system: Micrococcus luteus ATCC9341; experiment: Paper disc assay, Micrococcus luteus; details: column 1
Description: as §2, §3, §4

[5] = system: Xanthomonas campestris KB88; experiment: Paper disc assay, Xanthomonas campestris; details: X
Description: as §2, §3, §4

CC[C@H]1OC(=O)C[C@@H](O)[C@H](C)[C@@H](O[C@@H]2OC(C)[C@@H](O)C(N(C)C)C2O)[C@@H](CCN(CCn2cc(-c3ccsc3)nn2)Cc2ccc(I)cc2)C[C@@H](C)C(=O)/C=C/C(C)=C/[C@@H]1CO (stereo partly shown) [YT705]
MIC [1]: 8 µg/mL (≈ 8.06 µM) | MIC [2]: 8 µg/mL (≈ 8.06 µM)

CC[C@H]1OC(=O)C[C@@H](O)[C@H](C)[C@@H](O[C@@H]2OC(C)[C@@H](O)C(N(C)C)C2O)[C@@H](CCn2cc(-c3ccsc3)nn2)C[C@@H](C)C(=O)/C=C/C(C)=C/[C@@H]1CO (stereo partly shown) [YT726]
MIC [1]: 8 µg/mL (≈ 10.9 µM) | MIC [2]: 8 µg/mL (≈ 10.9 µM)

CC[C@H]1OC(=O)C[C@@H](O)[C@H](C)[C@@H](O[C@@H]2OC(C)[C@@H](O)C(N(C)C)C2O)[C@@H](CCN(CCn2cc(-c3ccccc3)nn2)Cc2ccc(I)cc2)C[C@@H](C)C(=O)/C=C/C(C)=C/[C@@H]1CO (stereo partly shown) [YT700]
MIC [1]: 4 to 8 µg/mL (≈ 4.06 to 8.11 µM) | MIC [2]: 8 µg/mL (≈ 8.11 µM)

CC[C@H]1OC(=O)C[C@@H](O)[C@H](C)[C@@H](O[C@@H]2OC(C)[C@@H](O)C(N(C)C)C2O)[C@@H](CCn2cc(-c3ccc(N(C)C)cc3)nn2)C[C@@H](C)C(=O)/C=C/C(C)=C/[C@@H]1CO[C@@H]1OC(C)[C@@H](O)C(OC)C1OC (stereo partly shown) [YT29, 20-(4-(4-dimethylaminophenyl)-1H-1,2,3-triazol-1-yl)-20-deoxodesmycosin]
Inhibition zone ([3]; 0.1 mg/6 mm disc): 7 mm | Inhibition zone ([3]; 1 mg/6 mm disc): 10 mm | Inhibition zone ([3]; 10 mg/6 mm disc): 15 mm | Inhibition zone ([4]; 0.1 mg/6 mm disc): 11 mm | Inhibition zone ([4]; 1 mg/6 mm disc): 19.5 mm | Inhibition zone ([4]; 10 mg/6 mm disc): 25.5 mm | Inhibition zone ([5]; 0.1 mg/6 mm disc): 7 mm | Inhibition zone ([5]; 1 mg/6 mm disc): 15 mm | Inhibition zone ([5]; 10 mg/6 mm disc): 24 mm

CC[C@H]1OC(=O)C[C@@H](O)[C@H](C)[C@@H](O[C@@H]2OC(C)[C@@H](O)C(N(C)C)C2O)[C@@H](CCN(CCn2cc(-c3cccc(N)c3)nn2)Cc2ccccc2)C[C@@H](C)C(=O)/C=C/C(C)=C/[C@@H]1CO (stereo partly shown) [YT657]
MIC [1]: 2 to 4 µg/mL (≈ 2.29 to 4.57 µM) | MIC [2]: 2 µg/mL (≈ 2.29 µM)

CC[C@H]1OC(=O)C[C@@H](O)[C@H](C)[C@@H](O[C@@H]2OC(C)[C@@H](O)C(N(C)C)C2O)[C@@H](CCN(CCn2cc(-c3ccsc3)nn2)Cc2ccccc2)C[C@@H](C)C(=O)/C=C/C(C)=C/[C@@H]1CO (stereo partly shown) [YT674]
MIC [1]: 2 to 4 µg/mL (≈ 2.31 to 4.62 µM) | MIC [2]: 2 µg/mL (≈ 2.31 µM)

CC[C@H]1OC(=O)C[C@@H](O)[C@H](C)[C@@H](O[C@@H]2OC(C)[C@@H](O)C(N(C)C)C2O)[C@@H](CCn2cc(-c3ccc4ccccc4n3)nn2)C[C@@H](C)C(=O)/C=C/C(C)=C/[C@@H]1CO (stereo partly shown) [YT734]
MIC [1]: 2 to 4 µg/mL (≈ 2.57 to 5.14 µM) | MIC [2]: 2 to 4 µg/mL (≈ 2.57 to 5.14 µM)

CC[C@H]1OC(=O)C[C@@H](O)[C@H](C)[C@@H](O[C@@H]2OC(C)[C@@H](O)C(N(C)C)C2O)[C@@H](CCn2cc(-c3ccccc3)nn2)C[C@@H](C)C(=O)/C=C/C(C)=C/[C@@H]1CO[C@@H]1OC(C)[C@@H](O)C(OC)C1OC (stereo partly shown) [YT13, 20-(4-phenyl-1H-1,2,3-triazol-1-yl)-20-deoxodesmycosin]
Inhibition zone ([3]; 0.1 mg/6 mm disc): 9.5 mm | Inhibition zone ([3]; 1 mg/6 mm disc): 12 mm | Inhibition zone ([3]; 10 mg/6 mm disc): 15.5 mm | Inhibition zone ([4]; 0.1 mg/6 mm disc): 15 mm | Inhibition zone ([4]; 1 mg/6 mm disc): 21.5 mm | Inhibition zone ([4]; 10 mg/6 mm disc): 27.5 mm | Inhibition zone ([5]; 0.1 mg/6 mm disc): 8 mm | Inhibition zone ([5]; 1 mg/6 mm disc): 17 mm | Inhibition zone ([5]; 10 mg/6 mm disc): 23.5 mm

CC[C@H]1OC(=O)C[C@@H](O)[C@H](C)[C@@H](O[C@@H]2OC(C)[C@@H](O)C(N(C)C)C2O)[C@@H](CCN(C)Cc2cn(-c3ccc4ncccc4c3)nn2)C[C@@H](C)C(=O)/C=C/C(C)=C/[C@@H]1CO (stereo partly shown) [YT710]
MIC [1]: 2 to 4 µg/mL (≈ 2.44 to 4.87 µM) | MIC [2]: 4 µg/mL (≈ 4.87 µM)

CC[C@H]1OC(=O)C[C@@H](O)[C@H](C)[C@@H](O[C@@H]2OC(C)[C@@H](O)C(N(C)C)C2O)[C@@H](CCN(C)Cc2cn(CCNCc3ccccc3)nn2)C[C@@H](C)C(=O)/C=C/C(C)=C/[C@@H]1CO (stereo partly shown) [YT653]
MIC [1]: 1 to 8 µg/mL (≈ 1.21 to 9.67 µM) | MIC [2]: 4 to 8 µg/mL (≈ 4.84 to 9.67 µM)
